Data set [1] addresses 5-hydroxytryptamine receptor 5A (Homo sapiens, UniProt P47898). The data set can be described thus: Displacement of [3H]LSD from human 5HT5A receptor.
Data set [2] has as its target Muscarinic acetylcholine receptor M1 (Homo sapiens, UniProt P11229). The data set can be described thus: Displacement of [3H]QNB from human muscarinic M1 receptor.
The target in data set [3] is 5-hydroxytryptamine receptor 3A (Homo sapiens, UniProt P46098). The data set can be described thus: Displacement of [3H]LY278584 from human 5HT3 receptor.
The target in data set [4] is Alpha-1D adrenergic receptor (Homo sapiens, UniProt P25100). As to the kind of experiment: Binding affinity to human adrenergic Alpha-1D receptor.
The target of another data set is D(1A) dopamine receptor (Homo sapiens, UniProt P21728). The data set can be described thus: Displacement of [3H]SCH233930 from human dopamine D1 receptor.
Data set [5] can be described thus: Displacement of [3H]DTG from human sigma 2 receptor.
The target in data set [6] is Delta-type opioid receptor (Homo sapiens, UniProt P41143). The data set can be described thus: Displacement of [3H]DADLE from human DOR.
Data set [7] deals with Beta-2 adrenergic receptor (Homo sapiens, UniProt P07550). As to the kind of experiment: Displacement of [125I]Iodopindolol from human adrenergic beta2 receptor.
Beta-2 adrenergic receptor, sequence (P07550 whole entry): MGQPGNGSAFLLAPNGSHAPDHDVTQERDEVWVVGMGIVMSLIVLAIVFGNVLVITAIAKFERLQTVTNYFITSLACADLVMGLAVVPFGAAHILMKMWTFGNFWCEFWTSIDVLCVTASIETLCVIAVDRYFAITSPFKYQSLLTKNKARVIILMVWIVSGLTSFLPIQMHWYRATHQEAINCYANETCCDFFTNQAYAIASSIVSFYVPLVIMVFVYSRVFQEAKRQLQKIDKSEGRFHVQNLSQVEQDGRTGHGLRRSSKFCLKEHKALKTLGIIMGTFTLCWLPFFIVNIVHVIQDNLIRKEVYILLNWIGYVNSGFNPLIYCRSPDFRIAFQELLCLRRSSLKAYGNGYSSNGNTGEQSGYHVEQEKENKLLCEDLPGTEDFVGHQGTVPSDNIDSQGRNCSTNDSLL
The next data set concerns the target D(2) dopamine receptor (Homo sapiens, UniProt P14416). The data set can be described thus: Displacement of [3H]N-methylspiperone from human dopamine D2 receptor.
For data set [8], the target named is Muscarinic acetylcholine receptor M4 (Homo sapiens, UniProt P08173). The data set can be described thus: Displacement of [3H]QNB from human muscarinic M4 receptor.
The target of data set [9] is Sodium-dependent dopamine transporter (Homo sapiens, UniProt Q01959). The data set can be described thus: Displacement of [3H]WIN-35428 from human DAT.
Data set [10] has as its target Kappa-type opioid receptor (Homo sapiens, UniProt P41145). As to the kind of experiment: Displacement of [3H]U69593 from human KOR.
Data set [11] has as its target Muscarinic acetylcholine receptor M2 (Homo sapiens, UniProt P08172). As to the kind of experiment: Displacement of [3H]QNB from human muscarinic M2 receptor.
In data set [12] the target is Alpha-1A adrenergic receptor (Homo sapiens, UniProt P35348). As to the kind of experiment: Displacement of [3H]Prazosin from human adrenergic alpha1A receptor.
The next data set has as its target D(1B) dopamine receptor (Homo sapiens, UniProt P21918). As to the kind of experiment: Displacement of [3H]SCH233930 from human dopamine D5 receptor.
The target of the next data set is Histamine H2 receptor (Homo sapiens, UniProt P25021). As to the kind of experiment: Displacement of [3H]Tiotidine from human histamine H2 receptor.
Histamine H2 receptor, sequence (P25021 whole entry): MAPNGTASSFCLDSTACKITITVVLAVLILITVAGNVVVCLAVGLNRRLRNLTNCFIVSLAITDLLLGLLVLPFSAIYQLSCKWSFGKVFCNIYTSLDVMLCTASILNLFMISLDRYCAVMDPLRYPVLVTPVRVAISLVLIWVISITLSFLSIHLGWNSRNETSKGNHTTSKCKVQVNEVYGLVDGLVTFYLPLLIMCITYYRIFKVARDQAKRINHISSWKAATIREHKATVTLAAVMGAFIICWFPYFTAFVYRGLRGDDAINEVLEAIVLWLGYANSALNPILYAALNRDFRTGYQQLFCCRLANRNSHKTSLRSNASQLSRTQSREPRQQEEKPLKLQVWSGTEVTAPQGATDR
The target of data set [13] is 5-hydroxytryptamine receptor 2A (Homo sapiens, UniProt P28223). The data set can be described thus: Displacement of [3H]Ketanserin from human 5HT2A receptor.
Data set [14] deals with Alpha-2C adrenergic receptor (Homo sapiens, UniProt P18825). The data set can be described thus: Displacement of [3H]Clonidine from human adrenergic Alpha-2C receptor.
Data set [15] concerns the target 5-hydroxytryptamine receptor 6 (Homo sapiens, UniProt P50406). The data set can be described thus: Displacement of [3H]LSD from human 5HT6 receptor.
Data set [16] concerns the target 5-hydroxytryptamine receptor 7 (Homo sapiens, UniProt P34969). The data set can be described thus: Displacement of [3H]LSD from human 5HT7 receptor.
In data set [17] the target is Alpha-2A adrenergic receptor (Homo sapiens, UniProt P08913). As to the kind of experiment: Displacement of [3H]Clonidine from human adrenergic alpha2A receptor.
Data set [18] deals with 5-hydroxytryptamine receptor 1B (Homo sapiens, UniProt P28222). As to the kind of experiment: Displacement of [3H]GR127543 from human 5HT1B receptor.
The target in data set [19] is Beta-1 adrenergic receptor (Homo sapiens, UniProt P08588). The data set can be described thus: Displacement of [125I]Iodopindolol from human adrenergic beta-1 receptor.
Another data set has as its target Histamine H4 receptor (Homo sapiens, UniProt Q9H3N8). As to the kind of experiment: Displacement of [3H]Histamine from human histamine H4 receptor.
Data set [20] has as its target 5-hydroxytryptamine receptor 2B (Homo sapiens, UniProt P41595). As to the kind of experiment: Displacement of [3H]LSD from human 5HT2B receptor.
The target of data set [21] is Sodium-dependent noradrenaline transporter (Homo sapiens, UniProt P23975). As to the kind of experiment: Displacement of [3H]Nisoxetine from human NET.
Sodium-dependent noradrenaline transporter, sequence (P23975 whole entry): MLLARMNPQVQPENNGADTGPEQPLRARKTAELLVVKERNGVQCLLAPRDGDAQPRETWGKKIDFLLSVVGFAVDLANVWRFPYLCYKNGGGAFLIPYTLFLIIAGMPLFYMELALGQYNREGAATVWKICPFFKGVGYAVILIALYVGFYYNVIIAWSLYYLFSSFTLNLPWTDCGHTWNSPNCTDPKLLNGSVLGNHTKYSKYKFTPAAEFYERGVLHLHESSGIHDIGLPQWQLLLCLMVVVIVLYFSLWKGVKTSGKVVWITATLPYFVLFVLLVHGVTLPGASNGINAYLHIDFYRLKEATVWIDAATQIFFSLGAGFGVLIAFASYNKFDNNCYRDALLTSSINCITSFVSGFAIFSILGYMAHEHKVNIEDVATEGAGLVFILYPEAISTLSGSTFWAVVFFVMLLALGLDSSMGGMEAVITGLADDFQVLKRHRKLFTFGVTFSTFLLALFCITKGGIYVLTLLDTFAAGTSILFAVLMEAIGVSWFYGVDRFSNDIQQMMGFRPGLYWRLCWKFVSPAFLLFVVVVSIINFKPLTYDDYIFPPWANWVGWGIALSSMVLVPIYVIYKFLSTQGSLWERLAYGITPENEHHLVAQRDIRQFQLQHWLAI
Data set [22] has as its target Muscarinic acetylcholine receptor M3 (Homo sapiens, UniProt P20309). As to the kind of experiment: Displacement of [3H]QNB from human muscarinic M3 receptor.
The next data set has as its target D(3) dopamine receptor (Homo sapiens, UniProt P35462). As to the kind of experiment: Displacement of [3H]N-methylspiperone from human dopamine D3 receptor.
The target of data set [23] is Alpha-1B adrenergic receptor (Homo sapiens, UniProt P35368). As to the kind of experiment: Displacement of [3H]Prazosin from human adrenergic Alpha-1B receptor.
Alpha-1B adrenergic receptor, sequence (P35368 whole entry): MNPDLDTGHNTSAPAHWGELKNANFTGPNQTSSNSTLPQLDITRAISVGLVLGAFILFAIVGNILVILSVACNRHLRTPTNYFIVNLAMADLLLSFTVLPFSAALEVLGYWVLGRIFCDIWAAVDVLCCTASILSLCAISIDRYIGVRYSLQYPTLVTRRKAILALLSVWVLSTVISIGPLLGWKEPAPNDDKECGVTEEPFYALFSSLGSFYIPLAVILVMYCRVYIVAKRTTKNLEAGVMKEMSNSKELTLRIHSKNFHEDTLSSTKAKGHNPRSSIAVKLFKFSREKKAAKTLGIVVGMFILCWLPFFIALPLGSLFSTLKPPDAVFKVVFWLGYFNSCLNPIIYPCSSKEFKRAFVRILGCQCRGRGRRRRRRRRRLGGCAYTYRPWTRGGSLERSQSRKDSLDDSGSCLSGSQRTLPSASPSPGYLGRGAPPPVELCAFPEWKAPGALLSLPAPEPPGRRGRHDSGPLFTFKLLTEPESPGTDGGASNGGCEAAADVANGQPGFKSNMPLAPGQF
The target in a further data set is D(4) dopamine receptor (Homo sapiens, UniProt P21917). The data set can be described thus: Displacement of [3H]N-methylspiperone from human dopamine D4 receptor.
D(4) dopamine receptor, sequence (P21917 whole entry): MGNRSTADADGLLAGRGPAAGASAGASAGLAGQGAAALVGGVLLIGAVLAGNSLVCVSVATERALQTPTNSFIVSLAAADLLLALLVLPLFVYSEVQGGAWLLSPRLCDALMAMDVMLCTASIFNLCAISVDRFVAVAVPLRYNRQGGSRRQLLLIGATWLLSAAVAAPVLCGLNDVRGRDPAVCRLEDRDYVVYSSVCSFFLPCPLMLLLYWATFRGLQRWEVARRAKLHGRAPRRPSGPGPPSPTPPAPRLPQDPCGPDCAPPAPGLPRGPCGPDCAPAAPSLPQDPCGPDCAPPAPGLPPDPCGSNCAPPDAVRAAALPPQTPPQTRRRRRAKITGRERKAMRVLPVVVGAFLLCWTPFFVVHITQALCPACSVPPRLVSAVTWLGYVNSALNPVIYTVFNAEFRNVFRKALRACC
Data set [24] concerns the target Sodium-dependent serotonin transporter (Homo sapiens, UniProt P31645). The data set can be described thus: Displacement of [3H]Citalopram from human SERT.
The target in data set [25] is 5-hydroxytryptamine receptor 2C (Homo sapiens, UniProt P28335). As to the kind of experiment: Displacement of [3H]Mesulergine from human 5HT2C receptor.
5-hydroxytryptamine receptor 2C, sequence (P28335 whole entry): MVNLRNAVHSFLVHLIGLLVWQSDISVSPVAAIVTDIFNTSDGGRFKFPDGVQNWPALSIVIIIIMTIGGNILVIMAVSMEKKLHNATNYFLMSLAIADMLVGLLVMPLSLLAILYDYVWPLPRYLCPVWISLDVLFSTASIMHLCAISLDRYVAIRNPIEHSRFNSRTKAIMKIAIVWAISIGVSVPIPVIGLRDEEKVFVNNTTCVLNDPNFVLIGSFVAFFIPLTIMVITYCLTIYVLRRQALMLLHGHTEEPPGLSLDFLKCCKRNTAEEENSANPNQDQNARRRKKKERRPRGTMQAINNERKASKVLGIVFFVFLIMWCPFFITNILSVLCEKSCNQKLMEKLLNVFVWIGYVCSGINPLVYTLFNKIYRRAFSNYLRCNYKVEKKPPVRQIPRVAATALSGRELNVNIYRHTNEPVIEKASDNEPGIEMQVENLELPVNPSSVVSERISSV
Data set [26] deals with Alpha-2B adrenergic receptor (Homo sapiens, UniProt P18089). As to the kind of experiment: Displacement of [3H]Clonidine from human adrenergic alpha2B receptor.
The target of data set [27] is 5-hydroxytryptamine receptor 1D (Homo sapiens, UniProt P28221). As to the kind of experiment: Displacement of [3H]GR127543 from human 5HT1D receptor.
Data set [28] concerns the target Beta-3 adrenergic receptor (Homo sapiens, UniProt P13945). As to the kind of experiment: Displacement of [125I]Iodopindolol from human adrenergic beta3 receptor.
The next data set addresses Histamine H3 receptor (Homo sapiens, UniProt Q9Y5N1). As to the kind of experiment: Displacement of [3H]alpha-methylhistamine from human histamine H3 receptor.
The target in data set [29] is 5-hydroxytryptamine receptor 1E (Homo sapiens, UniProt P28566). The data set can be described thus: Displacement of [3H]5-HT from human 5HT1E receptor.
The target of the next data set is Mu-type opioid receptor (Homo sapiens, UniProt P35372). The data set can be described thus: Displacement of [3H]DAMGO from human MOR.
The next data set has as its target Histamine H1 receptor (Homo sapiens, UniProt P35367). As to the kind of experiment: Displacement of [3H]Pyrilamine from human histamine H1 receptor.
The subject of data set [30] is Rattus norvegicus. As to the kind of experiment: Inhibition of MDMA-induced behavioral suppression in rat assessed as earning of 20 food pellets at 0.1 mg/kg, ip administered 15 mins before MDMA challenge by food-reinforced operant task method. Format: functional, organism-based. The arrangement: dose 0.1 mg/kg.
The test system of data set [31] is Rattus norvegicus. The data set can be described thus: Toxicity in rat at 1 mg/kg, ip after 15 mins. Format: organism-based. On the set-up: dose 1 mg/kg, route intraperitoneal. The settings on record: in vivo, 0.25 h.
The subject of data set [32] is Rattus norvegicus. As to the kind of experiment: Inhibition of MDMA-induced behavioral suppression in rat assessed as earning of 20 food pellets at 0.3 mg/kg, ip administered 15 mins before MDMA challenge by food-reinforced operant task method. Format: functional, organism-based. The arrangement: dose 0.3 mg/kg.

Ki and Activity data for two compounds are collected here from ChEMBL document CHEMBL1153197, “Synthetic studies and pharmacological evaluations on the MDMA ('Ecstasy') antagonist nantenine” (Bioorg Med Chem Lett, 2010).

pKi: −log10 of the molar value. Activity calls are given as the source filed them. The rule behind the calls is not given here.

Histamine H3 receptor, sequence (Q9Y5N1 whole entry): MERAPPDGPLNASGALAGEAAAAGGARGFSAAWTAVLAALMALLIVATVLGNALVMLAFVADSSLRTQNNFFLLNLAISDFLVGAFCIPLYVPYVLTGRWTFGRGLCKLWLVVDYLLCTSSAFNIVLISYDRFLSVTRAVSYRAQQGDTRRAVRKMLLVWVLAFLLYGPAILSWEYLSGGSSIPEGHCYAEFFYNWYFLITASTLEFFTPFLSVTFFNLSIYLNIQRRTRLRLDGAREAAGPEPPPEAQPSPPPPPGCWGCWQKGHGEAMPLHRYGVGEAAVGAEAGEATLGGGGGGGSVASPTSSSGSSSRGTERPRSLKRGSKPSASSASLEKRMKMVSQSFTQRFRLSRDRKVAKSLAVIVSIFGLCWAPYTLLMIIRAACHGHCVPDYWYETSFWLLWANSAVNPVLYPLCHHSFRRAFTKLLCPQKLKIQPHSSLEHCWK
D(2) dopamine receptor, sequence (P14416 whole entry): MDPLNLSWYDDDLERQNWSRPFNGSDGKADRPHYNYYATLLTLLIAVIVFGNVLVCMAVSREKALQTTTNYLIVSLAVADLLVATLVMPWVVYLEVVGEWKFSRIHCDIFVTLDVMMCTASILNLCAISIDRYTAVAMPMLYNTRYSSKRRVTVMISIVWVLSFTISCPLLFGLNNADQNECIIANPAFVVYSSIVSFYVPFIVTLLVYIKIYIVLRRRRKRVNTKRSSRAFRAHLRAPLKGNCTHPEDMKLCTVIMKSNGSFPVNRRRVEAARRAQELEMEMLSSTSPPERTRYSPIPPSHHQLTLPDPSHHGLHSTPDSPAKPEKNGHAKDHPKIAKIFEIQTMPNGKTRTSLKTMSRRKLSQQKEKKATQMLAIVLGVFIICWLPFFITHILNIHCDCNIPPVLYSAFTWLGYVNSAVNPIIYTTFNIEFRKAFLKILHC
Muscarinic acetylcholine receptor M2, sequence (P08172 whole entry): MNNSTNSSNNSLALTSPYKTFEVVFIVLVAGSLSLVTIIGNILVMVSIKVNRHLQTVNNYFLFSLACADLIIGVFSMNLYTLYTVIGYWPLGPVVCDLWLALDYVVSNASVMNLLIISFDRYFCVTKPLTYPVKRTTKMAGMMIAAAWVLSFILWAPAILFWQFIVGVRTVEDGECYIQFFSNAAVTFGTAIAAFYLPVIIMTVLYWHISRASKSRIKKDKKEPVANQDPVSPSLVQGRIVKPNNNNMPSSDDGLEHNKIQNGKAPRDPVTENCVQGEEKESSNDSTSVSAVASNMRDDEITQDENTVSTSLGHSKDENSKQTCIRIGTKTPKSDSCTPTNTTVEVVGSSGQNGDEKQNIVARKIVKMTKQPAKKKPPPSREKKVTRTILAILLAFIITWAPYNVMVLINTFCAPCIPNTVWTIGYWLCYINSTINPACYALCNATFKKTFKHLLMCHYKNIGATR
5-hydroxytryptamine receptor 6, sequence (P50406 whole entry): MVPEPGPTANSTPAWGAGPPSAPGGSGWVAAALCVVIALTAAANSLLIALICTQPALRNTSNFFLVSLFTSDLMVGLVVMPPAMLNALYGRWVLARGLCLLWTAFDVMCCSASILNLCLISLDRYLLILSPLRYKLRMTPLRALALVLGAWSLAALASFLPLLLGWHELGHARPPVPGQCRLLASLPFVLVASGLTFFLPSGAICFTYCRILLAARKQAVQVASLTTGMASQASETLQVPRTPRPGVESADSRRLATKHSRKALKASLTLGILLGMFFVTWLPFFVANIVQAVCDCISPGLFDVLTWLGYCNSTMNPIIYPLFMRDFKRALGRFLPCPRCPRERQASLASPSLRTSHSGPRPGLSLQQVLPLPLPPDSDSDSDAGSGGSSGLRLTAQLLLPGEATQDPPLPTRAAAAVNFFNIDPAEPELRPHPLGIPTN
Histamine H4 receptor, sequence (Q9H3N8 whole entry): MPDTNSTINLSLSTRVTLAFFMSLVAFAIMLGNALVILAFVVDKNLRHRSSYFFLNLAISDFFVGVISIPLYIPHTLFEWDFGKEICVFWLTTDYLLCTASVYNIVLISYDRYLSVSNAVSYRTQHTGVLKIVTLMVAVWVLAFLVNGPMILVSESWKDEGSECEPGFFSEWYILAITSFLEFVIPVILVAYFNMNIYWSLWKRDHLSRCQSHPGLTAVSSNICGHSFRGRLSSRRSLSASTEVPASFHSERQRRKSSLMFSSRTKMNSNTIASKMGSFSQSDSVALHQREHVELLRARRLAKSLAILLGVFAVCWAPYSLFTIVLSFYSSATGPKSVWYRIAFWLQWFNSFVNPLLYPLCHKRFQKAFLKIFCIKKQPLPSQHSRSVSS

With `COc1cc2c3c(c1OC)-c1cc4c(cc1CC3N(C)CC2)OCO4` (racemic) [NANTENINE], the pKi in [1] was 5.65; in [2] it was below 5.00; in [3], below 5.00; in data set [4], 6.47; at D(1A) dopamine receptor, 6.05; in [5], below 5.00. For the same compound, the negative-log Ki (pKi) in [6] was below 5.00; in data set [7], below 5.00; at D(2) dopamine receptor it was 6.07; in data set [8], below 5.00; in [9], below 5.00; in data set [10], below 5.00. The pKi is below 5.00 in [11]; 8.70 in data set [12]; 5.62 at D(1B) dopamine receptor; 6.17 on Histamine H2 receptor; 6.08 in [13]; 6.74 in data set [14]. Further, the negative-log Ki (pKi) is 6.59 in data set [15]; 7.17 in [16]; 5.89 in [17]; 7.00 in data set [18]; 5.07 in data set [19]; below 5.00 at Histamine H4 receptor. Moreover, the negative logarithm of the Ki (pKi) in data set [20] is 6.27; in [21], below 5.00; in data set [22], below 5.00; at D(3) dopamine receptor it was 6.51; in [23] it was 5.92; on D(4) dopamine receptor it was 6.58. Further, the pKi in data set [24] was 6.61; in [25] it was 5.97; in [26], 6.60; in [27], 7.31; in data set [28] it was below 5.00; on Histamine H3 receptor, below 5.00. Also, the pKi in [29] is below 5.00; on Mu-type opioid receptor, 5.14; at Histamine H1 receptor, below 5.00.

Turning to `O=C(c1ccc(F)cc1)C1CCN(CCn2c(=O)[nH]c3ccccc3c2=O)CC1` [KETANSERIN], the result in the data set with Rattus norvegicus [30] and with Rattus norvegicus [32] was Active. Further, the Activity entry in the data set with Rattus norvegicus [31] was “Toxic”.
